Laboratory results: the supplement of paper PMC11451515

Legend:
Settings in all cases: 48 h
P12-Ichikawa = assay: AUC of viability dose-response curve (% viability x log10 dose units); higher = less sensitive
Summary of the method: (§1)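 Area under the curve was integrated by trapezoidal rule from a log-logistic fit of normalised viability, with curves exceeding full viability scaled and quality-control failures removed. The fit had four parameters over log10 doses. Viability came from CellTiter-Glo One luminescence, normalised per plate to DMSO and cell-free wells, after leukemia cells adapted to each medium (500 or 1000 cells/well, 1536-well plates) were exposed to library compounds in DMSO for 48 h at 37°C. The 11 threefold doses ran from 47 μM to 0.79 nM.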

NOMO1 = assay: as above
Summary of the method: as §1

SEM cells [1] = assay: as above
Summary of the method: as §1

SEM cells [2] = assay: cell viability relative to DMSO control; higher = less cytotoxic
Summary of the method: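 NOMO1 or SEM cells were plated at 500 cells/well and P12-Ichikawa cells at 1000 cells/well in 1536-well plates (5 μl), after each leukemia line had been adapted for at least four passages in each medium. Pin dosing delivered library compounds in DMSO at 11 threefold concentrations, 47 μM to 0.79 nM. CellTiter-Glo One luminescence was read after 48 h at 37°C. Viability is reported as a per-plate percentage of DMSO wells, with cell-free wells as background.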

[3] = RPMI 5 mM glucose + 10% dialyzed FBS
[4] = HPLM + 10% dialyzed FBS, 0.000781 µM
[5] = HPLM + 10% dialyzed FBS, 0.00234 µM
[6] = HPLM + 10% dialyzed FBS, 0.00702 µM
[7] = HPLM + 10% dialyzed FBS, 0.0211 µM
[8] = HPLM + 10% dialyzed FBS, 0.0632 µM
[9] = HPLM + 10% dialyzed FBS, 0.19 µM
[10] = HPLM + 10% dialyzed FBS, 0.569 µM
[11] = HPLM + 10% dialyzed FBS, 1.71 µM
[12] = HPLM + 10% dialyzed FBS, 5.12 µM
[13] = HPLM + 10% dialyzed FBS, 15.4 µM
[14] = HPLM + 10% dialyzed FBS, 46.1 µM

c1ccc2c(CCNc3ccc(Nc4ccncc4)cc3)c[nH]c2c1
AUC of viability dose-response curve (P12-Ichikawa; HPLM + 10% dialyzed FBS): 444
AUC of viability dose-response curve (P12-Ichikawa; RPMI 5 mM glucose + 10% FBS): 429
AUC of viability dose-response curve (P12-Ichikawa; [3]): 418
AUC of viability dose-response curve (NOMO1; HPLM + 10% dialyzed FBS): 426
AUC of viability dose-response curve (NOMO1; RPMI 5 mM glucose + 10% FBS): 430
AUC of viability dose-response curve (NOMO1; [3]): 425
AUC of viability dose-response curve (SEM cells [1]; HPLM + 10% dialyzed FBS): 312
AUC of viability dose-response curve (SEM cells [1]; RPMI 5 mM glucose + 10% FBS): 282
AUC of viability dose-response curve (SEM cells [1]; [3]): 308

Cc1cccc(-c2n[nH]cc2-c2ccc3ncccc3n2)n1
AUC of viability dose-response curve (NOMO1; HPLM + 10% dialyzed FBS): 447
AUC of viability dose-response curve (NOMO1; RPMI 5 mM glucose + 10% FBS): 458
AUC of viability dose-response curve (NOMO1; [3]): 430
AUC of viability dose-response curve (SEM cells [1]; HPLM + 10% dialyzed FBS): 459
AUC of viability dose-response curve (SEM cells [1]; RPMI 5 mM glucose + 10% FBS): 449
AUC of viability dose-response curve (SEM cells [1]; [3]): 451

N[C@@H]1C[C@H]1c1ccccc1
cell viability (SEM cells [2]; [4]): 122%
cell viability (SEM cells [2]; [5]): 115%
cell viability (SEM cells [2]; [6]): 148%
cell viability (SEM cells [2]; [7]): 124%
cell viability (SEM cells [2]; [8]): 107%
cell viability (SEM cells [2]; [9]): 137%
cell viability (SEM cells [2]; [10]): 131%
cell viability (SEM cells [2]; [11]): 119%
cell viability (SEM cells [2]; [12]): 107%
cell viability (SEM cells [2]; [13]): 117%
cell viability (SEM cells [2]; [14]): 109%
AUC of viability dose-response curve (P12-Ichikawa; HPLM + 10% dialyzed FBS): 437
AUC of viability dose-response curve (P12-Ichikawa; RPMI 5 mM glucose + 10% FBS): 462
AUC of viability dose-response curve (P12-Ichikawa; [3]): 459
AUC of viability dose-response curve (NOMO1; HPLM + 10% dialyzed FBS): 464
AUC of viability dose-response curve (NOMO1; RPMI 5 mM glucose + 10% FBS): 468
AUC of viability dose-response curve (NOMO1; [3]): 465
AUC of viability dose-response curve (SEM cells [1]; HPLM + 10% dialyzed FBS): 449
AUC of viability dose-response curve (SEM cells [1]; RPMI 5 mM glucose + 10% FBS): 456
AUC of viability dose-response curve (SEM cells [1]; [3]): 457

COC1=CC=C(C=C1)C/2=C(OC3O[C@@H](C)[C@H](O)[C@@H](O)[C@H]3O)/C(=O)C4=C(O2)C(=C(OC5O[C@H](CO)[C@@H](O)[C@H](O)[C@H]5O)C=C4O)CC=C(C)C (stereo not given in full)
cell viability (SEM cells [2]; RPMI 5 mM glucose + 10% dialyzed FBS, 0.000781 µM): 127%
cell viability (SEM cells [2]; RPMI 5 mM glucose + 10% dialyzed FBS, 0.00234 µM): 123%
cell viability (SEM cells [2]; RPMI 5 mM glucose + 10% dialyzed FBS, 0.00702 µM): 117%
cell viability (SEM cells [2]; RPMI 5 mM glucose + 10% dialyzed FBS, 0.0211 µM): 118%
cell viability (SEM cells [2]; RPMI 5 mM glucose + 10% dialyzed FBS, 0.0632 µM): 126%
cell viability (SEM cells [2]; RPMI 5 mM glucose + 10% dialyzed FBS, 0.19 µM): 129%
cell viability (SEM cells [2]; RPMI 5 mM glucose + 10% dialyzed FBS, 0.569 µM): 124%
cell viability (SEM cells [2]; RPMI 5 mM glucose + 10% dialyzed FBS, 1.71 µM): 114%
cell viability (SEM cells [2]; RPMI 5 mM glucose + 10% dialyzed FBS, 5.12 µM): 115%
cell viability (SEM cells [2]; RPMI 5 mM glucose + 10% dialyzed FBS, 15.4 µM): 80.7%
cell viability (SEM cells [2]; RPMI 5 mM glucose + 10% dialyzed FBS, 46.1 µM): 14.7%
AUC of viability dose-response curve (P12-Ichikawa; HPLM + 10% dialyzed FBS): 456
AUC of viability dose-response curve (P12-Ichikawa; RPMI 5 mM glucose + 10% FBS): 459
AUC of viability dose-response curve (P12-Ichikawa; [3]): 469
AUC of viability dose-response curve (NOMO1; HPLM + 10% dialyzed FBS): 445
AUC of viability dose-response curve (NOMO1; RPMI 5 mM glucose + 10% FBS): 457
AUC of viability dose-response curve (NOMO1; [3]): 462
AUC of viability dose-response curve (SEM cells [1]; HPLM + 10% dialyzed FBS): 439
AUC of viability dose-response curve (SEM cells [1]; RPMI 5 mM glucose + 10% FBS): 420
AUC of viability dose-response curve (SEM cells [1]; [3]): 435

CC(c1cc2ccccc2s1)N(O)C(N)=O (stereo not given)
cell viability (SEM cells [2]; [4]): 112%
cell viability (SEM cells [2]; [5]): 130%
cell viability (SEM cells [2]; [6]): 123%
cell viability (SEM cells [2]; [7]): 118%
cell viability (SEM cells [2]; [8]): 129%
cell viability (SEM cells [2]; [9]): 136%
cell viability (SEM cells [2]; [10]): 132%
cell viability (SEM cells [2]; [11]): 120%
cell viability (SEM cells [2]; [12]): 119%
cell viability (SEM cells [2]; [13]): 116%
cell viability (SEM cells [2]; [14]): 73.1%
AUC of viability dose-response curve (P12-Ichikawa; HPLM + 10% dialyzed FBS): 456
AUC of viability dose-response curve (P12-Ichikawa; RPMI 5 mM glucose + 10% FBS): 460
AUC of viability dose-response curve (P12-Ichikawa; [3]): 458
AUC of viability dose-response curve (NOMO1; HPLM + 10% dialyzed FBS): 474
AUC of viability dose-response curve (NOMO1; RPMI 5 mM glucose + 10% FBS): 459
AUC of viability dose-response curve (NOMO1; [3]): 425
AUC of viability dose-response curve (SEM cells [1]; HPLM + 10% dialyzed FBS): 463
AUC of viability dose-response curve (SEM cells [1]; RPMI 5 mM glucose + 10% FBS): 459
AUC of viability dose-response curve (SEM cells [1]; [3]): 448

CC1(C)[C@H](C(=O)O)N2C(=O)C[C@H]2[S+]1(=O)[O-]
AUC of viability dose-response curve (P12-Ichikawa; HPLM + 10% dialyzed FBS): 468
AUC of viability dose-response curve (P12-Ichikawa; RPMI 5 mM glucose + 10% FBS): 470
AUC of viability dose-response curve (P12-Ichikawa; [3]): 469
AUC of viability dose-response curve (NOMO1; HPLM + 10% dialyzed FBS): 396
AUC of viability dose-response curve (NOMO1; RPMI 5 mM glucose + 10% FBS): 411
AUC of viability dose-response curve (NOMO1; [3]): 420
AUC of viability dose-response curve (SEM cells [1]; HPLM + 10% dialyzed FBS): 472
AUC of viability dose-response curve (SEM cells [1]; RPMI 5 mM glucose + 10% FBS): 468
AUC of viability dose-response curve (SEM cells [1]; [3]): 472

Nc1ncnc2c1ncn2[C@@H]1O[C@H](CO)[C@@H](O)[C@H]1O
AUC of viability dose-response curve (NOMO1; HPLM + 10% dialyzed FBS): 388
AUC of viability dose-response curve (NOMO1; RPMI 5 mM glucose + 10% FBS): 402
AUC of viability dose-response curve (NOMO1; [3]): 397
AUC of viability dose-response curve (SEM cells [1]; HPLM + 10% dialyzed FBS): 462
AUC of viability dose-response curve (SEM cells [1]; RPMI 5 mM glucose + 10% FBS): 454
AUC of viability dose-response curve (SEM cells [1]; [3]): 463

Clc1ccc(C(Cn2ccnc2)OCc2c(Cl)cccc2Cl)c(Cl)c1 (stereo not given)
cell viability (SEM cells [2]; [4]): 109%
cell viability (SEM cells [2]; [5]): 105%
cell viability (SEM cells [2]; [6]): 121%
cell viability (SEM cells [2]; [7]): 107%
cell viability (SEM cells [2]; [8]): 117%
cell viability (SEM cells [2]; [9]): 125%
cell viability (SEM cells [2]; [10]): 130%
cell viability (SEM cells [2]; [11]): 117%
cell viability (SEM cells [2]; [12]): 121%
cell viability (SEM cells [2]; [13]): 114%
cell viability (SEM cells [2]; [14]): 117%
AUC of viability dose-response curve (P12-Ichikawa; HPLM + 10% dialyzed FBS): 474
AUC of viability dose-response curve (P12-Ichikawa; RPMI 5 mM glucose + 10% FBS): 466
AUC of viability dose-response curve (P12-Ichikawa; [3]): 468
AUC of viability dose-response curve (NOMO1; HPLM + 10% dialyzed FBS): 466
AUC of viability dose-response curve (NOMO1; RPMI 5 mM glucose + 10% FBS): 468
AUC of viability dose-response curve (NOMO1; [3]): 468
AUC of viability dose-response curve (SEM cells [1]; HPLM + 10% dialyzed FBS): 462
AUC of viability dose-response curve (SEM cells [1]; RPMI 5 mM glucose + 10% FBS): 471
AUC of viability dose-response curve (SEM cells [1]; [3]): 467
